From PubChem BioAssay (NCI)
“And” between values parts separate entries of the source, which are not always exact repeats. Identical values can stand only once.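 Interpolation was linear, between the two tested concentrations surrounding the appropriate level; five concentrations were tested over 48 hours in 96-well plates. Here, GI50 denotes the concentration required for 50% inhibition of growth. TGI is the concentration that stops growth completely.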

Experiments:
Test in all cases: growth of human tumour cells (NCI), 48 h
SN12C renal = test system: SN12C renal
DMS 273 small cell lung = test system: DMS 273 small cell lung
A549 NSCLC = test system: A549 NSCLC
SNB-78 CNS = test system: SNB-78 CNS
NCI-H522 lung = test system: NCI-H522 lung
EKVX NSCLC = test system: EKVX NSCLC
HL-60(TB) leukemia = test system: HL-60(TB) leukemia
HOP-92 NSCLC = test system: HOP-92 NSCLC
LXFL 529 NSCLC = test system: LXFL 529 NSCLC
T-47D breast = test system: T-47D breast
NCI/ADR-RES ovarian = test system: NCI/ADR-RES ovarian

Brc1ccccc2cc(-c3ccccc3)nc1-2
TGI (SN12C renal): 19.4 µM
TGI (DMS 273 small cell lung): 16.4 µM
TGI (A549 NSCLC): 53 µM
TGI (SNB-78 CNS): 6.91 µM
TGI (NCI-H522 lung): 21.7 µM
TGI (EKVX NSCLC): 40.4 µM
TGI (HL-60(TB) leukemia): 35.8 µM
TGI (HOP-92 NSCLC): 19.8 µM
TGI (LXFL 529 NSCLC): 3.25 µM
GI50 (T-47D breast): 15.7 µM
TGI (T-47D breast): > 100 µM
TGI (NCI/ADR-RES ovarian): 44.6 µM

CC(=O)OCC1OC(n2cccnc2=O)C(OC(C)=O)C1OC(C)=O (stereo not drawn)
TGI (SN12C renal): > 100 µM
TGI (DMS 273 small cell lung): > 100 µM
TGI (A549 NSCLC): > 100 µM
TGI (SNB-78 CNS): > 100 µM
TGI (NCI-H522 lung): > 100 µM
TGI (EKVX NSCLC): > 100 µM
TGI (HL-60(TB) leukemia): > 100 µM
TGI (HOP-92 NSCLC): > 100 µM
TGI (LXFL 529 NSCLC): > 100 µM

CC1(C)c2ccccc2N2C(c3ccccc3)=NOC21C (stereo not drawn)
TGI (SN12C renal): > 100 µM
TGI (DMS 273 small cell lung): > 100 µM
TGI (A549 NSCLC): > 100 µM
TGI (SNB-78 CNS): > 100 µM
TGI (NCI-H522 lung): > 100 µM
TGI (EKVX NSCLC): > 100 µM
TGI (HL-60(TB) leukemia): > 100 µM
TGI (HOP-92 NSCLC): > 100 µM
TGI (LXFL 529 NSCLC): > 100 µM

N#C/C(=C\c1cc(O)c(O)c(O)c1)C(N)=O
TGI (SN12C renal): > 100 µM
TGI (DMS 273 small cell lung): > 100 µM
TGI (A549 NSCLC): > 100 µM
TGI (SNB-78 CNS): > 100 µM
TGI (NCI-H522 lung): > 100 µM
TGI (EKVX NSCLC): > 100 µM
TGI (HL-60(TB) leukemia): > 81.5 µM
TGI (HOP-92 NSCLC): > 100 µM
TGI (LXFL 529 NSCLC): > 100 µM
TGI (T-47D breast): > 100 µM
TGI (NCI/ADR-RES ovarian): > 100 µM

COc1cccc2c1C(=O)c1c(O)c3c(c(O)c1C2=O)C[C@@](O)(C(=O)CO)CC3OC1CC(N)C(OC2CCCCO2)C(C)O1 (stereo partly drawn)
GI50 (SN12C renal): 0.0157 µM
TGI (DMS 273 small cell lung): 7.18 µM
GI50 (A549 NSCLC): 0.00469 µM
TGI (A549 NSCLC): 1.15 µM
TGI (SNB-78 CNS): 26.5 µM
GI50 (NCI-H522 lung): 0.0409 µM
TGI (NCI-H522 lung): 0.282 µM and 1.72 µM
GI50 (EKVX NSCLC): 0.156 µM
TGI (EKVX NSCLC): 1.02 µM and 7.26 µM
GI50 (HL-60(TB) leukemia): < 0.001 µM
TGI (HOP-92 NSCLC): 0.537 µM
TGI (LXFL 529 NSCLC): 3.14 µM
TGI (T-47D breast): 0.925 µM
TGI (NCI/ADR-RES ovarian): 4.06 µM

COC(=O)c1c(O)ccc(O)c1C(C(C)=O)C(C)=O
TGI (SN12C renal): > 100 µM
TGI (DMS 273 small cell lung): > 100 µM
TGI (A549 NSCLC): > 100 µM
TGI (SNB-78 CNS): > 100 µM
TGI (NCI-H522 lung): > 100 µM
TGI (EKVX NSCLC): > 100 µM
TGI (HL-60(TB) leukemia): > 100 µM
TGI (HOP-92 NSCLC): > 100 µM
TGI (LXFL 529 NSCLC): > 100 µM

O=C(/C=C/c1ccc(Cl)c(Cl)c1)c1ccccc1Cl
TGI (SN12C renal): 30.8 µM
TGI (DMS 273 small cell lung): 14.5 µM
TGI (A549 NSCLC): 31.6 µM
TGI (SNB-78 CNS): 32.3 µM
TGI (NCI-H522 lung): 24.1 µM
TGI (EKVX NSCLC): 31.4 µM
TGI (HL-60(TB) leukemia): 16.7 µM
TGI (HOP-92 NSCLC): 31.7 µM
TGI (LXFL 529 NSCLC): 19.6 µM
